According to patent publication US9023789B2, “Amylin analogs and pharmaceutical compositions thereof” (Novo Nordisk A/S, priority 2012, dated 2015):
Numbered stars: 1 amine (or outer) side, 2 acyl side, 3 side chain; on linkers, the order of the positions; unused ones are H or OH. Bridge positions count the residues as written; N and C are the ends. Peptide text beside a SMILES is read from it. * marks the point of attachment. C20 diacid = O=C(O)CCCCCCCCCCCCCCCCCCC(=O)*; γGlu = O=C(O)[C@H](CCC(=O)[*:2])N[*:1]

What was measured:
[1] = biological target: T1, human amylin 3(a) receptor (human calcitonin receptor + RAMP-3) in BHK570 cells (Homo sapiens, UniProt O60896+P30988); assay: ASSAY (II)a functional assay, human amylin receptor (CRE luciferase); type: cell-based; details: for EC50: human amylin receptor functional potency, assay (II), read-out: hAmylin-R funct. EC50
T1 construct: expressed in transfected cells
Summary of the method: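 Receptor activation is measured as cAMP-driven CRE-luciferase expression in BHK cells expressing the calcitonin receptor, with RAMP-3 co-expressed to form the amylin 3(a) receptor. Cells are exposed to compound for 3 hours at 37° C, and luciferase is then quantified by luminescence.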

[2] = biological target: T2, rat amylin receptor (rat calcitonin receptor + rat RAMP 3) (Rattus norvegicus, UniProt P32214+Q9JJ73); assay: ASSAY (VI) binding to the rat amylin receptor; details: for IC50: binding to rat amylin receptor, read-out: rAmylin-R bind IC50
T2 construct: expressed in transfected cells; host or cells: BHK tk'ts 13 (transient, FuGENE 6), membranes
T2 sequence (P32214 25-479 isoform P32214-2 limits assumed): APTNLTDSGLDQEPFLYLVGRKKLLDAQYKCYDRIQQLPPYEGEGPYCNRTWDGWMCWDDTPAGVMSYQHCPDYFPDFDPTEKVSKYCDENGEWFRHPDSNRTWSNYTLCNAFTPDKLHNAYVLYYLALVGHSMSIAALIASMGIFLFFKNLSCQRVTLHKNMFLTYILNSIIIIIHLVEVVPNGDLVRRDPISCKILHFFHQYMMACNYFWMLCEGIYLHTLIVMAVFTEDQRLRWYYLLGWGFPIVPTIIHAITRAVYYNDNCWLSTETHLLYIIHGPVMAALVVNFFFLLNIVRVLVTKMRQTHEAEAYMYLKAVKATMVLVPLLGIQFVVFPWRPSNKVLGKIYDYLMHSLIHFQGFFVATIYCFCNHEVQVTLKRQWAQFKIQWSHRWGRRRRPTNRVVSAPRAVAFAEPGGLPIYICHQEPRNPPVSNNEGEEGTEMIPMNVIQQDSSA
T2 sequence (Q9JJ73 23-147 partner): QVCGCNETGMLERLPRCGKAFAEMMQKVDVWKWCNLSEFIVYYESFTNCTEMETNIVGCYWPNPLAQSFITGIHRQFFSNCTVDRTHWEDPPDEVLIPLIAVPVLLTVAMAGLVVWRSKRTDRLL
Summary of the method: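 Membranes for this rat amylin receptor binding assay came from BHK tk′ts 13 cells. The cells were transiently transfected with rat calcitonin receptor using the FuGENE® 6 reagent from Roche, as the manufacturer recommends. The cells were collected approximately 48 hours after transfection, and membranes were then prepared.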

[3] = biological target: T3, human calcitonin (a) receptor in BHK570 cells (Homo sapiens, UniProt P30988); assay: ASSAY (II)a functional assay, human calcitonin receptor (CRE luciferase); type: cell-based; details: read-out: hCTR funct. EC50
T3 construct: expressed in transfected cells
T3 sequence (P30988 25-474): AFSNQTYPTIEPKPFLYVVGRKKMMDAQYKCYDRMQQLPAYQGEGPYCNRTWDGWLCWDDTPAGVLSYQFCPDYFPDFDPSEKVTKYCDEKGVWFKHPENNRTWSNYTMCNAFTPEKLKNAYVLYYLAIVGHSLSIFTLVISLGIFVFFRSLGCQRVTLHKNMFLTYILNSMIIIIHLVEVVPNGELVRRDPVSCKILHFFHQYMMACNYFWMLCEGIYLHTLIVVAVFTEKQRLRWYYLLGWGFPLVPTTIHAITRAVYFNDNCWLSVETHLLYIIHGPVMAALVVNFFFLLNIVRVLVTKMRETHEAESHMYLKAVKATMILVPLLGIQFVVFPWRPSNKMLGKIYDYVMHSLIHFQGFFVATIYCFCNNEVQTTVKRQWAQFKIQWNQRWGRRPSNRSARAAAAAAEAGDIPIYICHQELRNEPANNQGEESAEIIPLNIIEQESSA
Text: 1. Luciferase Assay Outline
Activation of calcitonin and amylin (coexpression of calcitonin receptor and receptor activity modifying proteins (RAMP)) receptors lead to increased intracellular concentrations of cAMP. Consequently, transcription is activated by promoters containing multiple copies of the cAMP response element (CRE). It is thus possible to measure amylin activity by the use of a CRE luciferase reporter gene introduced into BHK cells also expressing calcitonin or amylin receptors.
2. Construction of Calcitonin (a)- and Amylin 3(a)-Receptor/CRE-Luc Cell Line.
The cell line was further transfected with RAMP-3, using standard methods. This turns the calcitonin receptor into an amylin 3(a) receptor. Methotrexate, Neomycin, and Hygromycin are selection markers for luciferase, the calcitonin receptor, and RAMP-3, respectively.
To perform activity assays, BHK calcitonin (a) receptor- or amylin 3(a)-receptor/CRE-luc cells were seeded in white 96 well culture plates at a density of about 20.000 cells/well. […] After incubation overnight at 37° C. and 5% CO2, the growth medium was replaced by 50 μl/well assay medium (DMEM (without phenol red), Glutamax™, 10% FBS, and 10 mM Hepes, pH 7.4). Further, 50 μl/well of standard or sample in assay buffer were added. After 3 hours incubation at 37° C. and 5% CO2, the assay medium with standard or sample were removed and replaced by 100 μl/well PBS. Further, 100 μl/well LucLite™ was added. The plates were sealed and incubated at room temperature for 30 minutes. Finally, luminescence was measured on a TopCounter (Packard) in SPC (single photon counting) mode.

[4] = biological target: T4, human calcitonin receptor (Homo sapiens, UniProt P30988); assay: ASSAY (VII) binding to the human calcitonin receptor (SPA, 125I-Calcitonin); details: read-out: hCTR bind IC50;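 further: cell membranes (35 ng/µL) combined with SPA beads in 40 µL of pH 7.4 Hepes buffer, 384-well format, signal counted on a TopCounter instrument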
T4 construct: expressed in transfected cells
T4 sequence (P30988 25-474): T3 sequence (P30988 25-474)

rat calcitonin receptor = biological target: T5, rat calcitonin receptor (Rattus norvegicus, UniProt P32214); assay: ASSAY (VIII) binding to the rat calcitonin receptor; details: Table 7, read-out: rCTR bind IC50
T5 construct: expressed in transfected cells; host or cells: BHK tk'ts 13 (transient, FuGENE 6), membranes
T5 sequence (P32214 25-479 isoform P32214-2 limits assumed): T2 sequence (P32214 25-479 isoform P32214-2 limits assumed)
Summary of the method: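 Cell membranes for binding came from BHK tk′ts 13 cells harvested approximately 48 hours after transient transfection with the rat receptor.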

[5] = biological target: T6, human amylin receptor (membranes from Amylin 3(a)/CRE-luc cells) (Homo sapiens, UniProt O60896+P30988); assay: ASSAY (V) binding to the human amylin receptor (SPA, 125I-rat amylin); details: for IC50: Table 4, read-out: hAmylin-R bind IC50;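 on all read-outs here: competition binding of cell membranes (35 ng/µL) mixed with SPA beads in 384-well plates at 40 µL total volume, read by scintillation counting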
T6 construct: expressed in transfected cells
T6 sequence (P30988 25-474): T3 sequence (P30988 25-474)
T6 sequence (O60896 24-148 partner): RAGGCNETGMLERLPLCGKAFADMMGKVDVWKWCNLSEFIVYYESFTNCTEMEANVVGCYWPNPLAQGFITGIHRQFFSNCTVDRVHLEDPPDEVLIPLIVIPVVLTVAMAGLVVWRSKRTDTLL

[6] = hCTR funct. EC50 over hAmylin-R funct. EC50
[7] = human functional selectivity: hCTR funct. EC50 / hAmylin-R funct. EC50
[8] = Table 7, rat binding selectivity, rCTR IC50 / rAmylin-R IC50
[9] = Table 7a (preferred compounds), rat binding selectivity, rCTR IC50 / rAmylin-R IC50
[10] = ratio of rCTR bind IC50 to rAmylin-R bind IC50
[11] = Table 5, selectivity, hCTR bind IC50 / hAmylin-R bind IC50
[12] = Table 5a, selectivity, hCTR bind IC50 / hAmylin-R bind IC50
[13] = Table 5b, selectivity, hCTR bind IC50 / hAmylin-R bind IC50
[14] = Table 7, human binding selectivity, included for comparison
[15] = Table 7a (preferred compounds), human binding selectivity, included for comparison
[16] = ratio of human calcitonin receptor binding IC50 to human amylin receptor binding IC50

| Ratio hCT/hAmylin funct. [1, 6] | EC50 [1] | Ratio hCT/hAmylin funct. [1, 7] | IC50 ([2]; Table 7) | Ratio rCT/rAmylin binding [2, 8] | Ratio rCT/rAmylin binding [2, 9] | Ratio rCT/rAmylin binding [2, 10] | EC50 [3] | IC50 [4] | IC50 (rat calcitonin receptor) | IC50 [5] | Ratio hCT/hAmylin binding [5, 11] | Ratio hCT/hAmylin binding [5, 12] | Ratio hCT/hAmylin binding [5, 13] | Ratio hCT/hAmylin binding ([5]; Table 5c, selectivity, hCTR bind IC50 / hAmylin-R bind IC50) | Ratio hCT/hAmylin binding [5, 14] | Ratio hCT/hAmylin binding [5, 15] | Ratio hCT/hAmylin binding [5, 16] | Compound |
| --- | --- | --- | --- | --- | --- | --- | --- | --- | --- | --- | --- | --- | --- | --- | --- | --- | --- | --- |
| 5.7 | 0.128 nM | 5.7 | 2.37 nM | 21.7 | 21.7 | 21.7 | 0.729 nM | 19.9 nM | 51.6 nM | 0.996 nM | 20.0 | 20.0 | 20.0 | 20.0 | 20.0 | 20.0 | 20.0 | CC[C@H](C)[C@H](NC(=O)[C@@H]1CCCN1C(=O)CNC(=O)[C@H](Cc1ccccc1)NC(=O)[C@H](CC(N)=O)NC(=O)[C@@H]1CCCN1C(=O)[C@H](CO)NC(=O)[C@H](CO)NC(=O)[C@H](Cc1c[nH]cn1)NC(=O)[C@H](CCCNC(=N)N)NC(=O)[C@H](CC(C)C)NC(=O)[C@H](Cc1ccccc1)NC(=O)[C@H](CCC(=O)O)NC(=O)[C@H](C)NC(=O)[C@H](CC(C)C)NC(=O)[C@H](CCCNC(=N)N)NC(=O)[C@H](CCC(N)=O)NC(=O)[C@@H](NC(=O)[C@H](C)NC(=O)[C@@H]1CSSC[C@H](NC(=O)[C@H](CCCCN)NC(=O)CC[C@H](NC(=O)CCCCCCCCCCCCCCCCCCC(=O)O)C(=O)O)C(=O)N[C@@H](CC(N)=O)C(=O)N[C@@H]([C@@H](C)O)C(=O)N[C@@H](C)C(=O)N[C@@H]([C@@H](C)O)C(=O)N1)[C@@H](C)O)C(=O)N[C@@H](CC(C)C)C(=O)N1CCC[C@H]1C(=O)N1CCC[C@H]1C(=O)N[C@H](C(=O)N[C@@H](CC(N)=O)C(=O)N[C@H](C(=O)NCC(=O)N[C@@H](CO)C(=O)N[C@@H](CC(N)=O)C(=O)N[C@H](C(=O)N[C@@H](Cc1ccc(O)cc1)C(N)=O)[C@@H](C)O)C(C)C)[C@@H](C)O [Example 6] ({C20 diacid-γGlu}-KCNTATCATQRLAEFLRHSSPNFGPILPPTNVGSNTY-NH2; disulfide 2-7) |
| 4.5 | 0.255 nM | 4.5 | 1.12 nM | 42.0 | 42.0 | 42.0 | 1.16 nM | 11.1 nM | 47.2 nM | 0.674 nM | 16.5 | 16.5 | 16.5 | – | 16.5 | 16.5 | 16.5 | CC(C)C[C@H](NC(=O)[C@H](CCCNC(=N)N)NC(=O)[C@H](CCC(N)=O)NC(=O)[C@@H](NC(=O)[C@H](C)NC(=O)[C@@H]1CSSC[C@H](NC(=O)[C@H](CCCCN)NC(=O)CC[C@H](NC(=O)CCCCCCCCCCCCCCCCCCC(=O)O)C(=O)O)C(=O)N[C@@H](CC(N)=O)C(=O)N[C@@H]([C@@H](C)O)C(=O)N[C@@H](C)C(=O)N[C@@H]([C@@H](C)O)C(=O)N1)[C@@H](C)O)C(=O)N[C@@H](C)C(=O)N[C@@H](CCC(=O)O)C(=O)N[C@@H](Cc1ccccc1)C(=O)N[C@@H](CC(C)C)C(=O)N[C@@H](CCCNC(=N)N)C(=O)N[C@@H](Cc1c[nH]cn1)C(=O)N[C@@H](CO)C(=O)N[C@@H](CO)C(=O)N1CCC[C@H]1C(=O)N[C@@H](CC(N)=O)C(=O)N[C@@H](Cc1ccccc1)C(=O)NCC(=O)N[C@@H](C)C(=O)N1CCC[C@H]1C(=O)N[C@@H](CC(C)C)C(=O)N[C@@H](CO)C(=O)N[C@@H](CO)C(=O)N[C@H](C(=O)N[C@@H](CC(N)=O)C(=O)N[C@H](C(=O)NCC(=O)N[C@@H](CO)C(=O)N[C@@H](CC(N)=O)C(=O)N[C@H](C(=O)N[C@@H](Cc1ccc(O)cc1)C(N)=O)[C@@H](C)O)C(C)C)[C@@H](C)O [Example 7] ({C20 diacid-γGlu}-KCNTATCATQRLAEFLRHSSPNFGAPLSSTNVGSNTY-NH2; disulfide 2-7) |
